Data taken from a melting point compilation (Tetko et al.).

Compound	melting point [°C]
Sc1nnc(SCc2ccccc2Cl)[nH]1	132 to 135
CC(Cl)C(=O)NC1(C#N)CCCCC1 (stereo not drawn)	100 to 102
CC(C)(C)c1cn2nc(Br)sc2n1	105 to 107
c1cc(-c2nc3cc4c(cc3[nH]2)OCCO4)cs1	279 to 281
CC(C)(C)OC(=O)NC(CC(=O)O)C1CC1 (stereo not drawn)	111 to 113
O=C(O)C=Cc1cn(-c2ccccc2)nc1-c1cc2ccccc2o1	225 to 227
Cc1cc(NC(=O)CN2CCNCC2)no1	114 to 116
Nc1ncc(Cc2ccccc2)s1	106 to 108
O=[N+]([O-])c1ccc(F)cc1NC1CC1	69 to 71
FC(F)(F)c1cnc(-n2cccn2)c(Cl)c1	50 to 52
ClCc1csc(Cc2ccc(Cl)cc2)n1	68 to 70
FC(F)(F)c1ccc2c(c1)NCCO2	94 to 96
O=C(O)c1cc2c([nH]c1=O)CCCCC2	247 to 249
NC(=O)c1ccc(N=C=S)cc1	189 to 191
NC(c1ccccc1)c1ccncc1 (stereo not drawn)	40 to 42
OCCOc1ccccc1C(F)(F)F	74 to 76
CCCC1(CCC)NC(=O)NC1=O	205 to 207
O=C(O)CCCN1C(=O)c2cccc3cccc(c23)C1=O	86 to 88
CCN(CC)c1ccc(S(=O)(=O)N2CCOCC2)cc1NC(=O)CCl	99 to 101
O=C(CCl)NCCc1cccc2ccccc12	104 to 106
Nc1ccc(OCC(F)(F)F)c(C(F)(F)F)c1	48 to 50
NCc1ccccc1CN1C(=O)NC2(CCCCC2)C1=O	141 to 143
CNS(=O)(=O)Cc1ccccc1CN	130 to 132
CC(C)(C)CC(=O)NN	51 to 53

Compound	melting point [°C]
N#Cc1cc(F)c(S(=O)(=O)Cl)c(F)c1	92 to 94
CS(=O)(=O)c1ccc(C(=O)NN)cc1	189 to 191
CC(C)(C)OC(=O)N1CCN(CCN)CC1	34 to 36
O=C(NC1CC1)c1ccc(Br)cc1	151 to 153
Nc1nnc(N2CCC(C(=O)O)CC2)[nH]1	264 to 266
Nc1cc(=O)[nH]n1-c1ccc(F)cc1	202 to 204
C#CCOc1ccccc1C#N	77 to 79
Cc1nc(N2CCOCC2)sc1C=O	166 to 168
Cc1cc([N+](=O)[O-])cc(S(=O)(=O)Cl)c1C	66 to 68
Cc1cc(S(N)(=O)=O)c(C)o1	86 to 88
O=c1cc(C(F)(F)F)[nH]c(=O)[nH]1	210 to 212
Nc1nnc(-c2ccc3ccccc3c2)o1	274 to 276
Nc1ccnn1Cc1ccccn1	68 to 70
Nc1nc(-c2c(F)cccc2F)cs1	179 to 181
Clc1nnc(-c2ccccc2)s1	82 to 84
OC1(Cc2ccc(F)cc2)CCNC1 (stereo not drawn)	73 to 75
O=S(=O)(Cl)c1cnc(Cl)cc1Cl	79 to 81
C#CCNC(=O)c1ccccc1N	96 to 98
c1ccc(-c2nnc(-c3ccccc3)[nH]2)cc1	189 to 191
Cc1ccc(-n2[nH]c(-c3ccco3)cc2=N)cc1	93 to 95
Brc1cccn2cnnc12	184 to 186
O=C1NC2(CCCCC2)NC2=C1CCCC2	193 to 195
Cc1cccc2c(CCN)c[nH]c12	125 to 127
Nc1n[nH]c(Cc2cccc(F)c2)n1	179 to 181

Compound	melting point [°C]
CN(C)c1cc(C(F)(F)F)nc(Cl)n1	106 to 108
Clc1cn[nH]c1	65 to 67
NC(=O)C1CCN(S(N)(=O)=O)CC1	228 to 230
Nc1c(Cl)cnn1C1CCN(Cc2ccccc2)C1 (stereo not drawn)	106 to 108
Nc1ccc(NC(=O)c2ccccc2F)cc1C(F)(F)F	124 to 126
O=C1CCCC(=O)N1Cc1cccc(Br)c1	76 to 78
CC(=O)c1[nH]c2c(c1C)C(=O)NC(=O)C2	354 to 356
CC(=O)c1sc2nc(CCl)[nH]c(=O)c2c1C	247 to 249
CN(C)c1ccc(C#N)c(F)c1	56 to 58
O=C(O)c1ccc(CN2C(=O)c3ccccc3C2=O)cc1	258 to 260
Cc1nc(N)n(-c2ccc(C#N)cc2)n1	270 to 272
O=C(OCc1ccccc1)N1CCCC1CS(=O)(=O)Cl (stereo not drawn)	60 to 62
Cc1[nH][nH]c(=O)c1CCO	183 to 185
O=C(NCCc1ccc(F)cc1)C1Cc2ccccc2CN1 (stereo not drawn)	102 to 104
N#CCC1=NCCN1	84 to 86
Nc1ccc(CC(=O)N2CCOCC2)cc1	164 to 166
N#Cc1ccc2c(c1)CCCC2=O	132 to 134
O=C1NCCCC1C(F)(F)F (stereo not drawn)	99 to 101
O=c1n(CCCl)nc2ccccn12	139 to 141
O=S(=O)(c1ccc(Cl)nc1)N1CCCC1	149 to 151
Oc1cc2c(nn1)CCNC2	211 to 213
O=S(=O)(Cl)c1c[nH]c2nccc(Br)c12	177 to 179

Second part, the molecule after the results:

melting point [°C]	Compound
203 to 205	O=C(O)c1ccc(Sc2ccc(Cl)cc2)cc1
103 to 105	COc1cc(C(C)N)ccc1OCCO (stereo not drawn)
199 to 201	O=C(O)c1ccc2c(c1Cl)C(=O)c1ccccc1C2=O
175 to 177	O=C(O)c1cc(-c2cccc(Cl)c2)on1
115 to 117	CC(N)c1cccc(NC(=O)c2ccccc2)c1 (stereo not drawn)
324 to 327	Cc1cc(O)cc(O)n1
163 to 165	COc1ccc(Br)cc1C(N)C(=O)O (stereo not drawn)
139 to 141	Cc1ccc(-c2nc(C(=O)O)cs2)n1C
108 to 110	Cc1ccc(CO)cc1N
166 to 168	NC(=O)Cc1ccc2c(c1)CCC2
112 to 114	COc1ccc(NC(=O)CSCC(=O)O)cc1
127 to 129	CCOc1ccc(Cl)c(C(=O)O)n1
70 to 72	O=C(Nc1ccc(Br)cc1Cl)OCC(F)(F)F
170 to 172	O=C(O)C1(Cc2nc3ccccc3s2)CCCCC1
201 to 203	COc1ccc(Cl)cc1-c1nnc(N)o1
54 to 56	CCC(C)n1nc(N)cc1C (stereo not drawn)
132 to 134	Cc1nn(Cc2ccc(Cl)cc2)c(C)c1CO
80 to 82	Cc1ccc(C(C)C)cc1OC(C)C(=O)O (stereo not drawn)
313 to 315	O=C(O)c1ccc(N2CCNC2=O)cc1
210 to 212	O=C(O)c1ccc(-c2ccccc2Cl)o1
127 to 129	CC(NC(=O)c1ccccc1N)c1ccccc1 (stereo not drawn)
88 to 90	CC(C)(C)NS(=O)(=O)c1ccc(Cl)c([N+](=O)[O-])c1
146 to 148	Cc1cc(NN)nc2ccccc12
170 to 172	CC(=O)c1ccc2cc(O)ccc2c1
231 to 233	O=C(O)CNC(=O)c1cc2ccccc2[nH]1

melting point [°C]	Compound
85 to 87	O=C(O)C1COc2ccc(Cl)cc2C1 (stereo not drawn)
119 to 121	CCN(CC)S(=O)(=O)c1ccc(NC)c(N)c1
171 to 173	Cc1ccc(-n2cnnn2)cc1N
185 to 187	Cn1cccc(C(=O)O)c1=O
222 to 224	CN1C(=O)CCC(C(N)=O)C1c1ccccc1 (stereo not drawn)
58 to 60	O=C(O)C(S)c1ccccc1 (stereo not drawn)
102 to 104	Cc1cc(C(=O)CCl)c(C)n1-c1cccc(Br)c1
174 to 176	CN(c1ccc(F)cc1)S(=O)(=O)c1ccc(Cl)c(C(=O)O)c1
174 to 176	COc1ccc(OC)c(-c2nn(-c3ccccc3)cc2C(=O)O)c1
158 to 160	O=C(O)c1cc(F)ccc1N1CCOCC1
127 to 129	O=C(O)COc1ccc(Oc2ccccc2)cc1
234 to 236	CN(C)C(C)(C(=O)O)c1ccc(F)cc1 (stereo not drawn)
172 to 174	Cc1cccc(NS(=O)(=O)c2cc(C(=O)O)c(Cl)cc2Cl)c1
59 to 61	CCC(CC(=O)O)c1ccccc1 (stereo not drawn)
39 to 41	Cc1ccc(C(F)(F)C(=O)O)cc1
141 to 144	CCN(CC)S(=O)(=O)c1ccc(N2CCCC2)c(C(=O)O)c1
61 to 63	COc1c(OC(F)F)ccc(C=O)c1[N+](=O)[O-]
179 to 181	O=C(O)c1ccn(-c2ccc(Cl)cc2Cl)n1
205 to 207	O=C(O)c1cnoc1-c1ccc(Cl)cc1
88 to 90	COc1ccc(C(=O)c2ccc(C)cc2)cc1
188 to 192	N#CCCn1cc(/C=C/C(=O)O)c2ccccc21
213 to 214	O=C(O)c1cccc2[nH]ccc12
191 to 193	Cc1ccc2c(C)cc(NN)nc2c1C
119 to 121	O=C(O)c1ccccc1CO
163 to 165	COc1ccc(N)cc1S(=O)(=O)NC1CC1

melting point [°C]	Compound
193 to 195	O=C(O)C(Cc1ccccc1)N1C(=O)C=CC1=O (stereo not drawn)
145 to 147	CC(Oc1ccccc1C(F)(F)F)C(=O)O (stereo not drawn)
111 to 113	N#CCOc1ccc(CC(=O)O)cc1
253 to 255	Cc1nc(N)ccc1C=CC(=O)O
89 to 91	Cc1cc(C#N)ccc1O
94 to 96	CC(C)(C)c1nc(CC(=O)O)cs1
195 to 197	Cc1cc(NS(=O)(=O)c2cccc(C(=O)O)c2)no1
234 to 236	O=C(NC(Cc1ccc(O)cc1)C(=O)O)c1cnccn1 (stereo not drawn)
123 to 125	O=C(O)Cc1cccc(OCc2ccccn2)c1
105 to 117	CCOC(=O)c1noc(N)c1-c1ccccc1
110 to 112	O=C(O)Cn1nc(-c2ccc(F)cc2)oc1=O
106 to 108	OC(c1ccc(Cl)cc1)c1cccnc1 (stereo not drawn)
149 to 151	COc1ccc(CCC(=O)O)cc1O
85 to 87	O=C(O)CCOc1cccc(Cl)c1
162 to 164	CN(c1cccc(Cl)c1)S(=O)(=O)c1cccc(C(=O)O)c1
33 to 35	COc1ccc([N+](=O)[O-])cc1CN=[N+]=[N-]
146 to 148	Cc1cc(C(=O)NC2CCCC2)ccc1N
169 to 171	NC(=O)c1ccc(N)cn1
169 to 171	Cc1cc(C(=O)O)cc([N+](=O)[O-])c1
56 to 61	COc1ccc(Cl)cc1CO
158 to 160	O=C(O)CNC(=O)c1ccc2c(c1)OCO2
133 to 135	NS(=O)(=O)c1ccccc1OC(F)F
74 to 78	CN(C)S(=O)(=O)c1cccc(NC(=O)CCl)c1
